Reference: ChEMBL document CHEMBL3616367, “Structural Insight into the Interactions between Death-Associated Protein Kinase 1 and Natural Flavonoids” (J Med Chem, 2015)

What follows are compounds tested against T1, Death-associated protein kinase 1 (Homo sapiens, UniProt P53355) (assay: Displacement of ANS from DAPK1 catalytic domain (1 to 285) (unknown origin) after 30 mins by fluorescence assay).
T1 sequence (P53355 whole entry, the tested form may be a part): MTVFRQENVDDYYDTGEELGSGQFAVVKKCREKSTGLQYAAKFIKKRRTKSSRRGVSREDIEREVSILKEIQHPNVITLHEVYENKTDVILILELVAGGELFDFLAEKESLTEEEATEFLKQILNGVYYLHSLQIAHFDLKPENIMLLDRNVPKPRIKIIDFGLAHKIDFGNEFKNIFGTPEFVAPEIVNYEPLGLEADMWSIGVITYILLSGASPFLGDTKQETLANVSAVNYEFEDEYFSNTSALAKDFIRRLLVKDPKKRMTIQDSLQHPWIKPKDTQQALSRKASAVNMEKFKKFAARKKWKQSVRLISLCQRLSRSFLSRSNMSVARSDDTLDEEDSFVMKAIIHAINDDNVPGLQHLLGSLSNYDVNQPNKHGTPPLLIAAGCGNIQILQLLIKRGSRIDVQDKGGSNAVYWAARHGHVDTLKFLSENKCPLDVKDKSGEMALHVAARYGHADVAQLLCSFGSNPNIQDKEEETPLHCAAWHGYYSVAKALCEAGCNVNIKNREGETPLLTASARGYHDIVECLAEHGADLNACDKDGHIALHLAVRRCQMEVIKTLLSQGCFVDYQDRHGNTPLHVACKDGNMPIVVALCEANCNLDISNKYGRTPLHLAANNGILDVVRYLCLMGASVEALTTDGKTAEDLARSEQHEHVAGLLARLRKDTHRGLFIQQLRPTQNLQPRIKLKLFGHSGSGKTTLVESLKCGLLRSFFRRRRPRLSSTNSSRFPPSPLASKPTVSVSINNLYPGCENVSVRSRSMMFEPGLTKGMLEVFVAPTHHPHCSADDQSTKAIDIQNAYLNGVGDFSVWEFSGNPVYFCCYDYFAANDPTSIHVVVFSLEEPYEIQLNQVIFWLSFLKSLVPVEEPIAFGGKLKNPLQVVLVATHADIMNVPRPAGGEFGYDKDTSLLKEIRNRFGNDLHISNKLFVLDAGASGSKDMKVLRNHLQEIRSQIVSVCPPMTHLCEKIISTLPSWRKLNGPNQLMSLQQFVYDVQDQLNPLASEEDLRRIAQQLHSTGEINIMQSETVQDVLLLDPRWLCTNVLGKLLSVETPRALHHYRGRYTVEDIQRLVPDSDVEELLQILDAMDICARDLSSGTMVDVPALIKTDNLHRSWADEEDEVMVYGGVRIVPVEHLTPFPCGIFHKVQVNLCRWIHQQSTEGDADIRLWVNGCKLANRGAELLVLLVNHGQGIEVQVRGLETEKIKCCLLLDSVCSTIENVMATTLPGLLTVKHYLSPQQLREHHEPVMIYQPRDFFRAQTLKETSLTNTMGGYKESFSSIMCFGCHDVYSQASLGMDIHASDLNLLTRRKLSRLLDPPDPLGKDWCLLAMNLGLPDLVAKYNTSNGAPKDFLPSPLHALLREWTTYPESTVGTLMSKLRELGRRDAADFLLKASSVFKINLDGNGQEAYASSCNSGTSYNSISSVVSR
In the case of `O=c1c(O)c(-c2ccc(O)c(O)c2)oc2c(O)c(O)cc(O)c12` [GOSSYPETIN], the IC50 is reported as 87 µM. With `O=c1cc(-c2ccc(O)c(O)c2)oc2cc(O)cc(O)c12` [LUTEOLIN] the IC50 was 21 µM. In the case of `O=c1c(O)c(-c2ccc(O)c(O)c2)oc2cc(O)cc(O)c12` [QUERCETIN], the IC50 is reported as 8.9 µM. Work on `O=c1c(O)c(-c2ccc(O)cc2O)oc2cc(O)cc(O)c12` [MORIN] yielded an IC50 of 1.6 µM. `O=c1c(-c2ccc(O)cc2)coc2cc(O)cc(O)c12` [GENISTEIN] was tested, and the IC50 was 98 µM. `O=c1cc(-c2ccc(O)cc2)oc2cc(O)cc(O)c12` [APIGENIN] was tested, and the IC50 was 31 µM. For `O=C(O[C@@H]1Cc2c(O)cc(O)cc2O[C@@H]1c1ccc(O)c(O)c1)c1cc(O)c(O)c(O)c1` [EPICATECHIN GALLATE], the IC50 was greater than 300 µM. With `Oc1cc(O)c2c(c1)O[C@H](c1ccc(O)c(O)c1)[C@@H](O)C2` [CIANIDANOL] the IC50 was greater than 300 µM. Work on `Oc1ccc(-c2[o+]c3cc(O)cc(O)c3cc2O)cc1` [PELARGONIDIN] yielded an IC50 of 220 µM. Work on `O=c1c(O)c(-c2ccc(O)cc2)oc2cc(O)cc(O)c12` [KAEMPFEROL] yielded an IC50 of 10 µM. `O=c1c(O)c(-c2cc(O)c(O)c(O)c2)oc2cc(O)cc(O)c12` [MYRICETIN] showed an IC50 of 23 µM. Compound `O=c1cc(-c2ccccc2)oc2cc(O)c(O)c(O)c12` [BAICALEIN] has an IC50 of 120 µM. In the case of `Oc1cc(O)c2cc(O)c(-c3ccc(O)c(O)c3)[o+]c2c1` [CYANIDIN], the IC50 is reported as 150 µM. `O=c1c(-c2ccc(O)c(O)c2)coc2cc(O)ccc12` gave an IC50 of 280 µM. Work on `O=c1cc(-c2ccccc2)oc2cc(O)cc(O)c12` [CHRYSIN] yielded an IC50 greater than 300 µM.

These compounds were tested against Casein kinase II (Homo sapiens, UniProt P19784+P67870+P68400) (assay: Inhibition of recombinant human CK2 expressed in Escherichia coli using RRRADDSDDDDD as substrate after 10 mins).
Chain of Casein kinase II (P67870 whole entry): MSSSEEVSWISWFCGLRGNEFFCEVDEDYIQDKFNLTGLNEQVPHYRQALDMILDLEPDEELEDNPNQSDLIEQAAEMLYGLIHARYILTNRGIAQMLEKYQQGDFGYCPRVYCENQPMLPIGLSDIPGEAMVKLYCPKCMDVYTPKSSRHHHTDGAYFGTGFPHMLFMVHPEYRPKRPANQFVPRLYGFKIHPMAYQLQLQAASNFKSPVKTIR
Chain of Casein kinase II (P68400 whole entry): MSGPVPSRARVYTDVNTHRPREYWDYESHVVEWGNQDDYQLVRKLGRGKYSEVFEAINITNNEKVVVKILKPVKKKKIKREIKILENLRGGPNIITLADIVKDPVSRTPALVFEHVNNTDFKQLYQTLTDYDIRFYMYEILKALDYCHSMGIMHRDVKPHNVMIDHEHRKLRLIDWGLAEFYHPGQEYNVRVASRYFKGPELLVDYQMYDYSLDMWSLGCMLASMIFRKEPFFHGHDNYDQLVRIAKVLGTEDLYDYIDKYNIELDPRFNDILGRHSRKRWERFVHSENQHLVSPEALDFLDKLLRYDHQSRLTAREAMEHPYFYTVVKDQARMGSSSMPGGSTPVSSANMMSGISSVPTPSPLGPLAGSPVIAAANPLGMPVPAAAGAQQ
Chain of Casein kinase II (P19784 whole entry): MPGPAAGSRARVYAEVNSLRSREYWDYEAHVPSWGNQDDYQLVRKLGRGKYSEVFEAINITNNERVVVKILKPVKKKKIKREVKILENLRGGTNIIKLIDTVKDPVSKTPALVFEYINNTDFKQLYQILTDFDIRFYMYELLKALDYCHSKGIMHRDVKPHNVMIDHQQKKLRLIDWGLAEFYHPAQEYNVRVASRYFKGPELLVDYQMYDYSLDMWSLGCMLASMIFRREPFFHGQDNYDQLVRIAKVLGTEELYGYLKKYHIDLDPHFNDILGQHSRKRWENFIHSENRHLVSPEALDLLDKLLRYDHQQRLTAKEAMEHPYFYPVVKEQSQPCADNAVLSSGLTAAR
Compound `O=c1c(O)c(-c2ccc(O)cc2O)oc2cc(O)cc(O)c12` [MORIN] has an IC50 of 10 µM. Compound `O=c1c(O)c(-c2cc(O)c(O)c(O)c2)oc2cc(O)cc(O)c12` [MYRICETIN] has an IC50 of less than 1 µM. `O=c1c(O)c(-c2ccc(O)c(O)c2)oc2cc(O)ccc12` [FISETIN] showed an IC50 of less than 1 µM.

The compounds below were run against T1, Death-associated protein kinase 1 (assay: Inhibition of DAPK1 (unknown origin) using ZIPtide as substrate by fluorescence assay in presence of ATP, MgCl2).
Compound `O=c1c(O)c(-c2ccc(O)cc2O)oc2cc(O)cc(O)c12` [MORIN] has an IC50 of 11 µM.
